Earlier results in US20240374627A1, “A PHARMACEUTICAL COMPOSITION COMPRISING COMBINATION OF SITAGLIPTIN AND EMPAGLIFLOZIN” (UNISON PHARMACEUTICALS PVT. LTD., priority 2021, published 2024).
Where two headings read alike, the source gives them in different places.

Assays:
[1] = healthy volunteers; Brand et al., Adv Ther 2012

Structure (SMILES)	solubility (acetonitrile)	solubility (aqueous media between pH 1-7.4, European assessment report of Jardiance)	solubility (ethanol)	solubility (methanol)	solubility (toluene)	solubility (water (pH 1-7.4))	effect of coadministration on the pharmacokinetics of either drug [1]	solubility (N,N-dimethyl formamide)	solubility (acetone)	solubility (isopropanol)	solubility (isopropyl acetate)	solubility (water)
OC[C@H]1O[C@@H](c2ccc(Cl)c(Cc3ccc(O[C@H]4CCOC4)cc3)c2)[C@H](O)[C@@H](O)[C@@H]1O [Empagliflozin, (1S)-1,5-anhydro-1-(4-chloro-3-{4-[(3S)-tetrahydrofuran-3-yloxy]benzyl}phenyl)-D-glucitol]	slightly soluble	slightly soluble	slightly soluble	sparingly soluble	practically insoluble	very slightly soluble	without specifying any clinically relevant effect					
N[C@@H](CC(=O)N1CCn2c(nnc2C(F)(F)F)C1)Cc1cc(F)c(F)cc1F [Sitagliptin, 7-[(3R)-3-amino-1-oxo-4-(2,4,5-trifluorophenyl)butyl]-5,6,7,8-tetrahydro-3-(trifluoromethyl)-1,2,4-triazolo[4,3-a]pyrazine phosphate (1:1) monohydrate]	soluble		soluble	slightly soluble			without specifying any clinically relevant effect	soluble	soluble	insoluble	insoluble	soluble
